Holding throughout (type): in vivo, human
In series [1] the test system is participants with relapsing multiple sclerosis. Briefly: Phase 2b dose-finding trial (DRI15928): treatment response versus exposure, new gadolinium-enhancing T1-hyperintense lesions. The note with it: after 12 weeks of treatment. How it is done:
(§1) The choice of the dose of 60 mg of the BTK inhibitor taken with food is based on the results of a Phase 2b dose-finding trial for tolebrutinib in participants with relapsing multiple sclerosis (DRI15928). See for example, Reich, D. S., et al., Safety and efficacy of tolebrutinib, an oral brain-penetrant BTK inhibitor, in relapsing multiple sclerosis: a phase 2b, randomised, double-blind, placebo-controlled trial. Lancet Neurol, 2021. 20(9): p. 729-738.
(§2) The choice of the dose of 60 mg tolebrutinib taken with food is based on the results of the Phase 2b dose-finding trial for tolebrutinib in adult participants with relapsing multiple sclerosis (DRI15928).

Series [2] in a line: Ongoing tolebrutinib Phase 3 trials: hepatic safety. The note with it: ongoing Phase 3 trials. The source says: Thus, there is a need to mitigate the risk of hepatic injury and provide safe treatment for patients with MOGAD.
A short description of series [3]: Phase 2b dose-finding trial (DRI15928): PK data and effect of fed status on tolebrutinib exposure. The conditions noted are these: effect of fed status on exposure; Phase 2b trial in relapsing multiple sclerosis. How it is done:
as §1, §2

Series [4] relates to participants with relapsing multiple sclerosis. Briefly: Phase 2b dose-finding trial (DRI15928): safety (TEAEs, AESIs, PCSAs). The conditions noted are these: Phase 2b trial. The procedure:
as §1
There were low numbers of AESIs and PCSAs observed.
as §2

For the compound `C=CC(=O)N1CCC[C@@H](n2c(=O)n(-c3ccc(Oc4ccccc4)cc3)c3c(N)nccc32)C1` [tolebrutinib, (R)-1-(1-acryloylpiperidin-3-yl)-4-amino-3-(4-phenoxyphenyl)-1H-imidazo[4,5-c]pyridin-2(3H)-one], in series [1], the “correlation between treatment response and exposure (new gadolinium-enhancing T1-hyperintense lesions)” value is given as “higher exposure was associated with low numbers of new gadolinium-enhancing T1-hyperintense lesions”. For the same compound, in series [2], the drug-induced liver injury entry is “Drug-induced liver injury has been identified” and the “time of occurrence of reported liver injury events after start of administration” value is on record as 2 to 3 months. The “course of liver enzyme elevation after discontinuation” value in series [2] (after tolebrutinib discontinuation) was “appears reversible”. Besides, in series [3], the “increase in AUC0-24 (positive food effect)” value is reported as “approximately 2 fold”. Further, in series [4], the “numbers of AESIs and PCSAs observed” value is “low numbers”. In series [4] (overall), the new risks identified entry is recorded as “no new risks were identified”. Besides, in series [4] (tolebrutinib treatment arms), the “correlation between dose administered and number of TEAEs” value was “no correlation”; the “most common events (preferred terms)” value is “headache, upper respiratory tract infection, and nasopharyngitis”.

These data come from US20260027100A1, “THERAPEUTIC TYROSINE KINASE INHIBITORS FOR MYELIN OLIGODENDROCYTE GLYCOPROTEIN ANTIBODY DISEASE (MOGAD)” (Principia Biopharma Inc., priority 2022, published 2026).
